From paper PMC6928743, “3’-O-Methylorobol Inhibits the Voltage-Gated Sodium Channel Nav1.7 with Anti-Itch Efficacy in A Histamine-Dependent Itch Mouse Model” (International Journal of Molecular Sciences, 2019) come the findings set out here.

pIC50: −log10 of the molar value.

Holding throughout (type): cell-based
For test [1], the target named is T1, Nav1.8 (Mus musculus, UniProt Q6QIY3).
T1 construct: gene Scn10a
Briefly: whole-cell voltage-clamp in ND7/[…] cells transiently expressing mNav1.[…], single concentration […].

For test [2], the target named is T2, Nav1.7 (Homo sapiens, UniProt Q15858).
T2 construct: gene SCN9A
Briefly: whole-cell voltage-clamp in CHO cells stably expressing hNav1.[…].

The target of test [3] is T3, Nav1.6 (Homo sapiens, UniProt Q9UQD0).
T3 construct: gene SCN8A
Briefly: whole-cell voltage-clamp in CHO cells stably expressing hNav1.[…], single concentration […].

T1 sequence (Q6QIY3 whole entry): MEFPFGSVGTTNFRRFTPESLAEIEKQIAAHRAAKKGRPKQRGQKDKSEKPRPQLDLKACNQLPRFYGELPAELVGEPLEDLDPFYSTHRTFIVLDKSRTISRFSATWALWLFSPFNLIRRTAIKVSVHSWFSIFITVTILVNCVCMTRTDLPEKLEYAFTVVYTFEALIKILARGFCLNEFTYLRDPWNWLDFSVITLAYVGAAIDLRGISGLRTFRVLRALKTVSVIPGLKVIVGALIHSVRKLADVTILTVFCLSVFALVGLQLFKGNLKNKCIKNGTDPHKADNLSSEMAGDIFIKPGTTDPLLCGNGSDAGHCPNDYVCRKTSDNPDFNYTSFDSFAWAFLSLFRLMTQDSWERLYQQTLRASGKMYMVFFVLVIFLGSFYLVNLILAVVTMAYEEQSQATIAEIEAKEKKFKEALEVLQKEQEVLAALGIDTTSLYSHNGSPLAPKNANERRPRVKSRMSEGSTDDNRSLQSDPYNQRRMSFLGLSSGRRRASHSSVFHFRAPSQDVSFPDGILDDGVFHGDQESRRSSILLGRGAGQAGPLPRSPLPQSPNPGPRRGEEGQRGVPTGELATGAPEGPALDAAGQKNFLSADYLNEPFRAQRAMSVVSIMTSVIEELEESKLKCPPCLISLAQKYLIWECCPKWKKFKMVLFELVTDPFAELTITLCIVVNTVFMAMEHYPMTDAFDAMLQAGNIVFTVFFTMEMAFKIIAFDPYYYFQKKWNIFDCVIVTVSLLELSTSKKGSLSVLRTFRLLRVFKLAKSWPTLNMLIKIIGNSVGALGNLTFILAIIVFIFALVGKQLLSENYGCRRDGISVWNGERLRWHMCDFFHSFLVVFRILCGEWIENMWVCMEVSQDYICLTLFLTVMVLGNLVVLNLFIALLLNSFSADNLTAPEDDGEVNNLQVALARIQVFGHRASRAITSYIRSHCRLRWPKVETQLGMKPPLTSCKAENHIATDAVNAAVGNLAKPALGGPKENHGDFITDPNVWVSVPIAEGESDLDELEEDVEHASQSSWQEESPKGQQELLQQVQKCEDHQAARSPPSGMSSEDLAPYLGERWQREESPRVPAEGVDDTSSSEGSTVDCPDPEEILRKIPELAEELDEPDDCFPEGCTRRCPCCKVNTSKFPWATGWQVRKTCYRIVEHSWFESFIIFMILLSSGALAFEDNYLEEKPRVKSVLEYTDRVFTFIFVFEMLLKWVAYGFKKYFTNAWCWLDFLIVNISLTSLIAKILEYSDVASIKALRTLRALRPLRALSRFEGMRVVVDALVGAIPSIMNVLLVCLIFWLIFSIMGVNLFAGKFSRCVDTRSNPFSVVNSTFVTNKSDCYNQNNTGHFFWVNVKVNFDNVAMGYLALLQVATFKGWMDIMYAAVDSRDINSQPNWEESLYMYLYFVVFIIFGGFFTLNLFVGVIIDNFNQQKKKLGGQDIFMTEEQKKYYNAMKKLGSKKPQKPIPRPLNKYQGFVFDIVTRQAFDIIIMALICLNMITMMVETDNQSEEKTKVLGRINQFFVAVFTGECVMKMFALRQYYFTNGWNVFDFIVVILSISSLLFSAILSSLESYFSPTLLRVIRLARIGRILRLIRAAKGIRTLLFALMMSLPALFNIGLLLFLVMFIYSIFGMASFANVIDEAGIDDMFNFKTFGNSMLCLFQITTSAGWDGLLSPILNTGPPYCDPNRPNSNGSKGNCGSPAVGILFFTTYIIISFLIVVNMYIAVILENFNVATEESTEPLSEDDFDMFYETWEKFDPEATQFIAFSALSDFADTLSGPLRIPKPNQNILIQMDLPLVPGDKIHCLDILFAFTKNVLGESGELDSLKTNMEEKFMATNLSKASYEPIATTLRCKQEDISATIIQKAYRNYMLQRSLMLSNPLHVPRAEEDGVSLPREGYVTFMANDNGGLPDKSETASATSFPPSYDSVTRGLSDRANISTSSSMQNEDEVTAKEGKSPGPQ
T2 sequence (Q15858 whole entry): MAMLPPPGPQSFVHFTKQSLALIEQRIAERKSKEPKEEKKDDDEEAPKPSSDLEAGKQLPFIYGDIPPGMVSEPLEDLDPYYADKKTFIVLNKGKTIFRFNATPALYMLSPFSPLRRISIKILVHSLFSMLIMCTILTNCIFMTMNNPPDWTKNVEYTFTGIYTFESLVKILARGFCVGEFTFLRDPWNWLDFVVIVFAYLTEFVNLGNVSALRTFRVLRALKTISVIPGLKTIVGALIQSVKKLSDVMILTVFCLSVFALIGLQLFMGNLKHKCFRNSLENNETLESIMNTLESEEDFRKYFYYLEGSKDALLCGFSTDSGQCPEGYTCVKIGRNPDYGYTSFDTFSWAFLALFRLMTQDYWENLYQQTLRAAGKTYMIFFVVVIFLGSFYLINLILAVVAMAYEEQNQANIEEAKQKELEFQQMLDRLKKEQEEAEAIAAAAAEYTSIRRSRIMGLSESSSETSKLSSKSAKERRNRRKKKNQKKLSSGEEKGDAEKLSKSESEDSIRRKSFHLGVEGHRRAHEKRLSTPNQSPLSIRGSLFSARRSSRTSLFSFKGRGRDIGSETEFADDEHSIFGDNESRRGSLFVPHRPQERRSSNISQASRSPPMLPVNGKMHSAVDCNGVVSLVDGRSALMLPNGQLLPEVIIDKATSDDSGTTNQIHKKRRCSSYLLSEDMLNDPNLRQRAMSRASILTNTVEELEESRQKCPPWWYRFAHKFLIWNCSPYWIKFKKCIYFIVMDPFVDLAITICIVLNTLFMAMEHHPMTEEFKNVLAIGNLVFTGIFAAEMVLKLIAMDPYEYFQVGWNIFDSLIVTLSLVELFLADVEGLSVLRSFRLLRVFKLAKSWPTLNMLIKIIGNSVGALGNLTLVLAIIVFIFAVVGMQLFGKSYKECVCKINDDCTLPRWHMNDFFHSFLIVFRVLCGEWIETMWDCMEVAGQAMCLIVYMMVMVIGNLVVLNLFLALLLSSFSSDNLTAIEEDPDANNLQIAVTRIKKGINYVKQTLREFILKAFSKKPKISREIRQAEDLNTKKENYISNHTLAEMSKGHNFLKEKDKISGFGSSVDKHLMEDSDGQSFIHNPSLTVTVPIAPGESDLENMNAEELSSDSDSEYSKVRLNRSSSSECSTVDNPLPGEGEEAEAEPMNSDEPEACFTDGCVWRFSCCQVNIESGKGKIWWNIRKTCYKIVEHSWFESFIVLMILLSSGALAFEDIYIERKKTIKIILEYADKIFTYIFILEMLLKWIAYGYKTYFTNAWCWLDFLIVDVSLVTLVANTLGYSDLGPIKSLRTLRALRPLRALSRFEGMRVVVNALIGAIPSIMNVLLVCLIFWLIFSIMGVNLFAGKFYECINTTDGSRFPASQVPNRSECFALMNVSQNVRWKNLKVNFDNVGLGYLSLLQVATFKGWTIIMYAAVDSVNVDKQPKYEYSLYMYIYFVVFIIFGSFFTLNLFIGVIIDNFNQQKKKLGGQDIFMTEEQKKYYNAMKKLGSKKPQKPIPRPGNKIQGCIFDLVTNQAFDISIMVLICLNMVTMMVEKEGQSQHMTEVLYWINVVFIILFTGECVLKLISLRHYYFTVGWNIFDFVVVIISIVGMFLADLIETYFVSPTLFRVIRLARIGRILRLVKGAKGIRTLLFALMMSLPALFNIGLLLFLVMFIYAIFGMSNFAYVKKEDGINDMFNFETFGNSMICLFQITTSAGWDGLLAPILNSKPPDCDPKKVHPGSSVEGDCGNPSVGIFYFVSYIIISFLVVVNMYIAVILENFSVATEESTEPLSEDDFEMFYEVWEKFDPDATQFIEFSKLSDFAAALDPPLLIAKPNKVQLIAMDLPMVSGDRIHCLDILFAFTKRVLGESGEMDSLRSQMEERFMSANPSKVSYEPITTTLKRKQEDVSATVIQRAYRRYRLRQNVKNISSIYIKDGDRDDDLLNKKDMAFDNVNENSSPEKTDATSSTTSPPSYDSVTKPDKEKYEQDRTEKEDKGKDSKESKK

For `COc1cc(-c2coc3cc(O)cc(O)c3c2=O)ccc1O` [3’-O-methylorobol], the inhibition at 10 µM came to 23% in test [1] and 39% in test [3]. This compound gave a pIC50 in test [2] of 5.46.
